Experimental data as given in article PMC4928094, “The first characterization of multidrug and toxin extrusion (MATE/SLC47) proteins in zebrafish (Danio rerio)” (Scientific Reports, 2016).

Columns and labels:
[1] = test system: human MATE1; conditions: human MATE1 ref 18; cited from earlier work
[2] = target: T1, zebrafish Mate7 (Danio rerio, UniProt U3PTD6); assay: DAPI inhibition assay, Mate7; assay type: cell-based; conditions: Mate7; inhibition of DAPI (2.5 μM) uptake; n = 3; NE = no effect in the compound solubility range; read-out: IC50
Method: (§1) HEK293T cells were transiently transfected as described previously[31] using the PEI (polyethyleneimine) reagent in 48-well plates. Cells were in parallel transfected with pcDNA3.1/His/LacZ plasmid and transfection efficiency was evaluated 24 h after transfection with the LacZ staining protocol.
(§2) HEK293T cells overexpressing respective single zebrafish Mate transporter were used for further experiments. […] DAPI fluorescence was measured at 360 and 460 nm […], respectively. The uptake into vector-transfected HEK293T cells (mock cells) was subtracted to obtain transporter-specific uptake.
(§3) Inhibition assays using DAPI as a fluorescent substrate were performed in the same transport medium. […] Compounds tested for interaction were checked using at least four concentrations but only a representative concentration (with the highest response or the largest concentration in solubility range) is shown.
(§4) For the purpose of IC50 calculations, data were fitted to the sigmoidal four-parameter dose-response model (variable slope),

[3] = target: T2, zebrafish Mate3 (Danio rerio, UniProt A1L1P9); assay: DAPI inhibition assay, Mate3; assay type: cell-based; parameters: expressed in transfected cells; host or cells: HEK293T; conditions: Mate3; inhibition of DAPI (2.5 μM) uptake; n = 3; NE = no effect in the compound solubility range; read-out: IC50
T2 sequence (A1L1P9 1-590): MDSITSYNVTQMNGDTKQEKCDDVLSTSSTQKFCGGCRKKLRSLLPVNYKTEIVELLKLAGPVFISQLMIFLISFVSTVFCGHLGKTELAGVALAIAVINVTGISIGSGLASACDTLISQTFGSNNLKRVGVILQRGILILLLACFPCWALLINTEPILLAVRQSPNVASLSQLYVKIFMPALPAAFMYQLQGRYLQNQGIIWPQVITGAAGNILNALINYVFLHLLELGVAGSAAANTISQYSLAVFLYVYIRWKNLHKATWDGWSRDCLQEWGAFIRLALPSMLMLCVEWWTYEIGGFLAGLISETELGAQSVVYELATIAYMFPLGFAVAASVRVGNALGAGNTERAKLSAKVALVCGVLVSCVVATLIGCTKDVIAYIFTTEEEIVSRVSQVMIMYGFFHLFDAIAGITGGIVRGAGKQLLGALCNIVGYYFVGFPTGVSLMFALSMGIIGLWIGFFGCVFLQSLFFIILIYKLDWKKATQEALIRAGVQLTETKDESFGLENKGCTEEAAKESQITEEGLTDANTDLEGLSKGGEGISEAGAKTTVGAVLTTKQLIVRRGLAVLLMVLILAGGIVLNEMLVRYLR
Method: as §1, §2, §3, §4

[4] = target: T3, zebrafish Mate4 (Danio rerio, UniProt U3Q0C3); assay: DAPI inhibition assay, Mate4; assay type: cell-based; conditions: Mate4; inhibition of DAPI (1 μM) uptake; n = 3; NE = no effect in the compound solubility range; read-out: IC50
T3 sequence (U3Q0C3 entry or part of it): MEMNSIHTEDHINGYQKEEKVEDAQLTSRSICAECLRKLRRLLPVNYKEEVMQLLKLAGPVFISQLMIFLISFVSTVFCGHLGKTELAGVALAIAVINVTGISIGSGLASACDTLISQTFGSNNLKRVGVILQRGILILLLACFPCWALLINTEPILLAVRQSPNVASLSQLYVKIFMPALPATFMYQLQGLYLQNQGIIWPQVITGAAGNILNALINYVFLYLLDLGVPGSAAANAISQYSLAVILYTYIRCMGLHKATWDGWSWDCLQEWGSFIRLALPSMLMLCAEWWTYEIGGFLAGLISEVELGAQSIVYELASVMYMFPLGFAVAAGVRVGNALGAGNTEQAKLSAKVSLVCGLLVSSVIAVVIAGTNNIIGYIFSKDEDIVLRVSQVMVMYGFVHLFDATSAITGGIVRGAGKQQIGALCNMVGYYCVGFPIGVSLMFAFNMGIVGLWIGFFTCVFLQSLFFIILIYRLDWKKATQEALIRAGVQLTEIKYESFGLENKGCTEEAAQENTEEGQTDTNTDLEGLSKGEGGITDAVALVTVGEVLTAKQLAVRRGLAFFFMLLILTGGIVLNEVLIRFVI
Method: as §1, §2, §3, §4

[5] = target: T4, zebrafish Mate6 (Danio rerio, UniProt A1L2E7); assay: DAPI inhibition assay, Mate6; assay type: cell-based; conditions: Mate6; inhibition of DAPI (1 μM) uptake; n = 3; NE = no effect in the compound solubility range; read-out: IC50
Method: as §1, §2, §3, §4

[6] = target: T5, zebrafish Mate8 (Danio rerio, UniProt A0A8M6YZ09); assay: DAPI inhibition assay, Mate8; assay type: cell-based; conditions: Mate8
T5 sequence (A0A8M6YZ09 entry or part of it): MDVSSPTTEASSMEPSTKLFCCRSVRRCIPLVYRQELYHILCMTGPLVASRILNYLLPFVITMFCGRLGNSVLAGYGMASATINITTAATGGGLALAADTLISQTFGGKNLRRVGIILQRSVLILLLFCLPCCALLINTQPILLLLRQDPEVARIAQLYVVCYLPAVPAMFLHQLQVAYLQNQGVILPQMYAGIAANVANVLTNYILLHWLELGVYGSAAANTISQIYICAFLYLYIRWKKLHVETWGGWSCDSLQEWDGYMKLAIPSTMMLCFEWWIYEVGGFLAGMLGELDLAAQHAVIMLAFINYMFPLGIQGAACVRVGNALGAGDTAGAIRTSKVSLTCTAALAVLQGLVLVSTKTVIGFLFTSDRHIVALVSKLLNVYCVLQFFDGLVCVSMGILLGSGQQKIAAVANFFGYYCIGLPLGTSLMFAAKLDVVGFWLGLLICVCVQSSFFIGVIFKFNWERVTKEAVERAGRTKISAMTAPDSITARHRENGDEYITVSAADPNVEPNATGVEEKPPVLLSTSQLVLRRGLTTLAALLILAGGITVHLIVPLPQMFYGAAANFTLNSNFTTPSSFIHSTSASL
Method: as §1, §2, §3, §4

[7] = target: T4, zebrafish Mate6; assay: Uptake of fluorescent dyes by HEK293T cells overexpressing zebrafish Mate6; conditions: dye uptake, mean ± SD
Method: as §1
(§5) HEK293T cells overexpressing respective single zebrafish Mate transporter were used for further experiments. Cell uptake of all substrates except DAPI was measured in sodium based transport medium (145 mM NaCl, 3 mM KCl, 1 mM CaCl2, 0.5 mM MgCl2, 5 mM glucose and 10 mM Tris, pH 8.4). Briefly, after 5 minute incubation period, the cells were rapidly washed two times with ice-cold phosphate-buffered saline (PBS), lysed in 250 μL of 0.1% sodium dodecyl sulphate for 30 min and transferred to the black 96-well plates where fluorescence was measured using the microplate reader (Infinite M200, Tecan, Salzburg, Austria) at following excitation and emission wavelengths: ASP^+, 450/590 nm; EtBr, 535/590 nm; Rh123, 485/530 nm; berberine, 355/540 nm; amiloride, 366/418 nm. […] DAPI fluorescence was measured at 360 and 460 nm […], respectively. The uptake into vector-transfected HEK293T cells (mock cells) was subtracted to obtain transporter-specific uptake.
(§6) Calibration curves for all substrates were generated in 0.1% SDS and in the cell matrix dissolved in 0.1% SDS. […] Using the calibration curves, uptake was expressed as pmol of substrate per mg of protein per minute. Total cell protein content was determined according to the Bradford method.
(§7) All assays were performed in 3–5 independent experiments run in triplicates. Data shown on related figures represent mean ± standard errors (SE) or standard deviations (SD). All calculations were performed using GraphPad Prism 5.00 for Windows (GraphPad Software, San Diego, California, USA) as described below. The kinetic parameters, Km and Vmax values were calculated using the Michaelis-Menten equation, […]

[8] = target: T1, zebrafish Mate7; assay: Uptake of fluorescent dyes by HEK293T cells overexpressing zebrafish Mate7; conditions: dye uptake, mean ± SD
Method: as §1, §5, §6, §7

[9] = target: T2, zebrafish Mate3; assay: Uptake of fluorescent dyes by HEK293T cells overexpressing zebrafish Mate3; conditions: dye uptake, mean ± SD; for Km: triplicate, representative experiment
Method: as §1, §5, §6
All assays were performed in 3–5 independent experiments run in triplicates. Data shown on related figures represent mean ± standard errors (SE) or standard deviations (SD). All calculations were performed using GraphPad Prism 5.00 for Windows (GraphPad Software, San Diego, California, USA) as described below. The kinetic parameters, Km and Vmax values were calculated using the Michaelis-Menten equation,
where V is velocity (picomoles of substrate per milligram of proteins per minute), Vmax is maximal velocity, [S] is substrate concentration and Km is the Michaelis Menten constant. The uptake into vector-transfected HEK293 cells was subtracted to obtain transporter-specific uptake.

[10] = target: T3, zebrafish Mate4; assay: Uptake of fluorescent dyes by HEK293T cells overexpressing zebrafish Mate4; conditions: dye uptake, mean ± SD, NT = no transport found
Method: as §1, §5, §6, §7

[11] = target: T5, zebrafish Mate8; assay: Uptake of fluorescent dyes by HEK293T cells overexpressing zebrafish Mate8; conditions: dye uptake, mean ± SD, NT = no transport found
Method: as §1, §5, §6, §7

[12] = substrate: N=C(N)NC(=O)c1nc(Cl)c(N)nc1N; assay: cells, lysate or membranes; conditions: dye uptake, HEK293T, mean ± SD
Method: (§8) Calibration curves for all substrates were generated in 0.1% SDS and in the cell matrix dissolved in 0.1% SDS. Resulting linear calibration curves were the same in the SDS and in the dissolved cell matrix. Using the calibration curves, uptake was expressed as pmol of substrate per mg of protein per minute. Total cell protein content was determined according to the Bradford method[33].
(§9) All assays were performed in 3–5 independent experiments run in triplicates. […] All calculations were performed using GraphPad Prism 5.00 for Windows (GraphPad Software, San Diego, California, USA) as described below. The kinetic parameters, Km and Vmax values were calculated using the Michaelis-Menten equation,

[13] = substrate: COc1ccc2cc3[n+](cc2c1OC)CCc1cc2c(cc1-3)OCO2; assay: cells, lysate or membranes; conditions: dye uptake, HEK293T, mean ± SD
Method: as §8, §9

[14] = substrate: CN(C)c1ccc(/C=C/c2cc[n+](C)cc2)cc1; assay: cells, lysate or membranes; conditions: dye uptake, HEK293T, mean ± SD
Method: as §8, §9

[15] = substrate: COC(=O)c1ccccc1-c1c2ccc(=N)cc-2oc2cc(N)ccc12; assay: cells, lysate or membranes; conditions: dye uptake, HEK293T, mean ± SD
Method: as §8, §9

[16] = other: Mate3, triplicate, representative experiment

Molecule: C[n+]1ccc(-c2ccccc2)cc1 [MPP^+, 1-methyl-4-phenylpyridinium, reference compound]
- Km [1]: 100 µM
- IC50 [2]: 93.6 µM
- IC50 [3]: 2430 µM
- IC50 [4]: 434 µM
- IC50 [5]: 27.9 µM
- interaction strength ([6]; class by IC50 of DAPI uptake inhibition): weak (IC50 of 100–999 μM was classified as weak interaction)
- IC50 ([6]; inhibition of DAPI (1 μM) uptake, n = 3, NE = no effect in the compound solubility range, read-out: IC50): 978 µM

Molecule: COC(=O)c1ccccc1-c1c2ccc(=N)cc-2oc2cc(N)ccc12 [Rh123, rhodamine 123]
- vmax [7]: 55.6 ± 1.48 pmol/mg protein/min
- vmax [8]: 4.79 ± 0.17 pmol/mg protein/min
- vmax [9]: 105 ± 5.16 pmol/mg protein/min
- vmax [10]: 1.03 ± 0.03 pmol/mg protein/min
- vmax [11]: 12.3 ± 0.61 pmol/mg protein/min

Molecule: N=C(N)c1ccc(-c2cc3ccc(C(=N)N)cc3[nH]2)cc1 [DAPI, 4′,6-diamidino-2-phenylindole]
- Km [7]: 0.26 ± 0.05 µM
- vmax [7]: 44.3 ± 1.80 pmol/mg protein/min
- Km [8]: 1.44 ± 0.19 µM
- vmax [8]: 193 ± 9.15 pmol/mg protein/min
- vmax [9]: 436 ± 21.8 pmol/mg protein/min
- Km [9]: 2.83 ± 0.34 µM
- Km [10]: 0.29 ± 0.04 µM
- vmax [10]: 47.7 ± 2.27 pmol/mg protein/min
- Km [11]: 0.55 ± 0.07 µM
- vmax [11]: 24.4 ± 0.70 pmol/mg protein/min

Molecule: CC[n+]1c(-c2ccccc2)c2cc(N)ccc2c2ccc(N)cc21 [EtBr, ethidium bromide]
- vmax [9]: 825 ± 25.5 pmol/mg protein/min
- Km [9]: 5.56 ± 0.5 µM

B1: zebrafish Mate7 (Danio rerio) (protein)
chain: MDVSSPGTDNLSMEPSAKLFCCGFMRRCIPLVYREELYHILRMTGPLLVCRFLNFLLFFVVTMFCGRLGNTVLAGYAMASATINVTAAATGLGLALACDTLVSQTFGSKNLLRVGIILQRGIVILTLFSLPCWALLVNTQPLLLYLGQEPEVARIAQLYVVVYLPAIPAMFLYQLQLSYLQNQGVIKPQMYASAVANVANVIANYFLLYWWDFGVYGSAAANTFAQVFNCFALFCFIRWQKLHEKTWGGWSLEALQDWGSYMKLAIPSTLMTCFEWWIYEVGGFLAGMLSEVDLAAQHVVIMLAYINYMIPLGMQGAACVRVGNALGAGETAAAILTSKVSLISAAVIAIIQGFVLGSTKTVIGYIFTSDESITELVSQLLNIYCPLQFFNGILCVGMGVLLGTGQQKIAAIANLFGYYCVGLPSSIVLMFTAGLQVAGFWLGLLIAVFLLAIFFTVAIFKLNWKKMTEEAIARTGKSANGAANGTMTTEFCSNHRNSFYQVVLNAENGNGYMVVSSQDQDERLNSTAVPEEPNVTGVEEKPPVLLSTTQLVLRRGLTTVAALLILAVGIIIHLTVPLPQVSYGAGANYTVDSNFTTANPIYSTSFI
- Km ([12]; other: Mate7): 20.6 ± 4.20 µM
- Vmax ([12]; other: Mate7): 19.8 ± 1.84 pmol/mg protein/min
- Km ([13]; other: Mate7): 1.76 ± 0.38 µM
- Vmax ([13]; other: Mate7): 28.0 ± 2.39 pmol/mg protein/min
- Km ([14]; other: Mate7): 3.51 ± 0.27 µM
- Vmax ([14]; other: Mate7): 52.3 ± 1.26 pmol/mg protein/min
- Km ([15]; other: Mate7): 0.22 ± 0.03 µM

B2: zebrafish Mate6 (Danio rerio) (protein)
chain: MPEAGGPLANTEQITEATAPSSKLLGCSCVRRWVPLAYREELYHVLCLTGPLLISRILSFLLPFVTTIFCGHLGNAELAGYALASATVNVTTTATGCGLALACDTLVSQTFGSKNHKRVGEILQRSMLILLLFCLPCWAILINAESILLALKQEPEVARIAQLYVTAYLPAVPAMFLHYLQVSYLQNQGIILPQMYTAVAANILNVATNYILLHAMKLGVKGSAAANSISQITICLLLFAYIRWKKLHLKTWGGWSTASLQEWGSYMKLAIPSTLMLCFEWWIYEIGGFLAGMLGEVDLAAQHVLLEIGSIAYMFPLGVHAAACVRVGNALGAGDTVRALITSKVTLMISGILAFAQGIGIALTKSKLGYIFTSDESIVAIVSQNLTLYVFLQFFDALVCVCSGILLGAGKQKIAAVSNLICYYCIGLPVGISLMFLAELRILGLWLGLLICVIIQTCFFTTLIFKLDWKKVTEQAQKRAGKHAKVVCLPKAPLIGPVVETLVSEDQDNTEQTDGTSSIPEPWDDITGNKAQLTSSSSEVSSYIQVSTQDQDKLASECGEGQPKVLLSIKQLVLRRGLTLLITLLILIAGITVHVVCPLPEHSVQRQSNFTNDSGNFSTPFSILNITMS
- Km ([12]; other: Mate6): 11.1 ± 2.12 µM
- Vmax ([12]; other: Mate6): 24.8 ± 1.54 pmol/mg protein/min
- Km ([13]; other: Mate6): 8.35 ± 1.00 µM
- Vmax ([13]; other: Mate6): 215 ± 9.72 pmol/mg protein/min
- Km ([14]; other: Mate6): 6.23 ± 1.02 µM
- Vmax ([14]; other: Mate6): 160 ± 10.8 pmol/mg protein/min
- Km ([15]; other: Mate6): 1.73 ± 0.16 µM

B3: zebrafish Mate3 (Danio rerio) (protein)
chain: T2 sequence (A1L1P9 1-590)
- Km [12, 16]: 33.4 ± 4.57 µM
- Vmax [12, 16]: 53.1 ± 4.0 pmol/mg protein/min
- Km [13, 16]: 14.4 ± 5.14 µM
- Vmax [13, 16]: 242 ± 46.9 pmol/mg protein/min
- Km [14, 16]: 13.4 ± 1.55 µM
- Vmax [14, 16]: 296 ± 14.0 pmol/mg protein/min
- Km [15, 16]: 8.52 ± 1.25 µM
